In patent US12636305B2, “Composition and method of applying same to increase survival of fish following catch-and-release situations” (Dutch Creek Nymphing, LLC, priority 2022, dated 2026):
Values joined by “and” are separate entries in the source; they are usually repeats but may differ in a detail not shown here. Identical values can stand only once.

System: Zebrafish, Danio rerio
Assay: Zebrafish swim exhaustion test (vessel plunger model)
Type: in vivo
Set-up: Immediate recovery 20 min later, % Control (change from the control treatment as a percentage of the control treatment): concentration or dose not given beside the values
Settings: for Immediate recovery 20 min later, % Control (change from the control treatment as a percentage of the control treatment) / Immediate recovery 20 min later, Average: 20 minutes after treatment; for Immediate recovery 20 min later, % Control (change from the control treatment as a percentage of the control treatment): versus water control; for Immediate recovery 20 min later, Average: average of 8 fish; for Immediate recovery 20 min later, Average / Immediate recovery 20 min later (water vortex revolutions per minute when the fish failed to maintain swimming in place): post exhaustion; for Immediate recovery 20 min later (water vortex revolutions per minute when the fish failed to maintain swimming in place): individual fish (8 per treatment), 20 minutes after application of the treatment
Description: This study utilizes a well-recognized vessel plunger model system to determine fish exhaustion during maximal swim performance trials (Usui T, Noble […]. The French press: a repeatable and high-throughput approach to exercising zebrafish (Danio rerio). […] In brief, zebrafish is placed in the top compartment above plunger and evaluated for its ability to swim against circular water currents created by a rotating magnetic stir bar positioned below the plunger. […] Next, the fish is brought to the water surface with the aid of a plunger and the composition is administered to the fish using one of the possible methods of administration. The fish is lowered back into the top compartment, and the individual maximum swimming speed is determined again (post-exhaustion value). This experimental setup allows one to determine the highest tolerated continuous swimming speed associated with control, exhaustion and recovery conditions that models catching, fighting, landing, treating, and releasing fish. […] The experimental methodology was substantially similar to the methods discussed in Usui, et al. (2018). […] Each treatment was administered to eight Zebrafish (n=104 total fish). […] Initial swim strength was measured prior to exhaustion of the fish and subsequent administration of the selected treatment and therefore serves as a baseline. […] After the initial swim strength test, the fish swam to exhaustion (as defined in Usui, et al. […] As anticipated by the Applicant, even post-treatment the fish became exhausted at a lower rpm, but there were significant differences in when each treatment group began to tire.

Compound	Immediate recovery 20 min later, % Control (change from the control treatment as a percentage of the control treatment)	Immediate recovery 20 min later, Average	Immediate recovery 20 min later (water vortex revolutions per minute when the fish failed to maintain swimming in place)
N=C(N)NCCC[C@H](N)C(=O)O [Arginine, arginine]	17%	484 rpm	520 rpm (2×) and 510 rpm and 550 rpm and 450 rpm and 580 rpm and 460 rpm and 280 rpm
O=C(O)CN(CCN(CC(=O)O)CC(=O)O)CC(=O)O [EDTA, ethylenediaminetetraacetic acid]	8%	446 rpm	460 rpm (3×) and 430 rpm and 410 rpm (2×) and 420 rpm and 520 rpm
CC(C)C[C@H](N)C(=O)O [Leucine, leucine]	10%	455 rpm	460 rpm and 400 rpm and 470 rpm (2×) and 510 rpm and 490 rpm and 390 rpm and 450 rpm
C/C=C/C=C/C(=O)[O-].[K+] [Potassium sorbate, potassium sorbate]	5%	433 rpm	380 rpm and 420 rpm and 440 rpm and 460 rpm (2×) and 390 rpm and 500 rpm and 410 rpm
CC(=O)C(=O)O [Pyruvate, pyruvate]	9%	451 rpm	420 rpm (2×) and 430 rpm and 450 rpm (2×) and 510 rpm and 520 rpm and 410 rpm
O=C([O-])[O-].O=C([O-])[O-].OO.OO.OO.[Na+].[Na+].[Na+].[Na+] [Sodium percarbonate, sodium percarbonate]	24%	514 rpm	540 rpm (2×) and 500 rpm and 590 rpm and 530 rpm and 430 rpm and 520 rpm and 460 rpm
salt	14%	471 rpm	410 rpm and 490 rpm (2×) and 510 rpm (2×) and 480 rpm (2×) and 400 rpm
